{
  "source": "patent US20060292651A1",
  "about": "“Protein labelling with oº-alkylguanine-dna alkyltrnsferase” (priority 2002, published 2006)",
  "origin": "cited, not measured here",
  "biological_target": "T1, hAGT (Homo sapiens, UniProt P16455)",
  "T1 sequence (P16455 1-207)": "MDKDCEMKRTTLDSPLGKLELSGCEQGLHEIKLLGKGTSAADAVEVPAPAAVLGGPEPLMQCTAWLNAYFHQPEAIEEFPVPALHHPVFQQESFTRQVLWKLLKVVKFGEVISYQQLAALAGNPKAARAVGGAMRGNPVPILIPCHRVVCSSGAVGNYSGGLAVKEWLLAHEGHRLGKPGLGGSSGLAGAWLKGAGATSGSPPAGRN",
  "details": "reaction with hAGT",
  "data": [
    {"compound": "Nc1nc(OCc2ccccc2)c2nc[nH]c2n1", "note": "[O^6-benzyl-guanine]", "values": [
      {"measurement": "second order rate constant", "value": "approximately 10^3 sec^−1 M^−1"}
    ]}
  ]
}
